Laboratory results: ChEMBL document CHEMBL1944561, “Discovery and SAR exploration of a novel series of imidazo[4,5-b]pyrazin-2-ones as potent and selective mTOR kinase inhibitors” (Bioorg Med Chem Lett, 2011)

Assays:
[1] = target: T1, Aurora kinase A (Homo sapiens) (UniProt O14965); test: Inhibition of Aurora-A assessed as activity remaining at 10 uM
T1 sequence (whole entry): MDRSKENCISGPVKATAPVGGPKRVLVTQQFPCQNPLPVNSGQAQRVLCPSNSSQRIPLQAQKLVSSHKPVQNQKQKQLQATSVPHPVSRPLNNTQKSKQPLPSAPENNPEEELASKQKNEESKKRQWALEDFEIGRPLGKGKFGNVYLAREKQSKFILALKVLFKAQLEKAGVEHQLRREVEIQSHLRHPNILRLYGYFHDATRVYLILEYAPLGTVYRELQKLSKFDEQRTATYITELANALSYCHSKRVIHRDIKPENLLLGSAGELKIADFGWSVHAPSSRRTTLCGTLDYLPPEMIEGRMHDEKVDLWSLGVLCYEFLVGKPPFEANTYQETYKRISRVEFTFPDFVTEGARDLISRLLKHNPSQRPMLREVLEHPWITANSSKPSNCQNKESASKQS

[2] = target: T2, Cytoplasmic tyrosine-protein kinase BMX (Homo sapiens) (UniProt P51813); test: Inhibition of Bmx assessed as activity remaining at 10 uM
T2 sequence (whole entry): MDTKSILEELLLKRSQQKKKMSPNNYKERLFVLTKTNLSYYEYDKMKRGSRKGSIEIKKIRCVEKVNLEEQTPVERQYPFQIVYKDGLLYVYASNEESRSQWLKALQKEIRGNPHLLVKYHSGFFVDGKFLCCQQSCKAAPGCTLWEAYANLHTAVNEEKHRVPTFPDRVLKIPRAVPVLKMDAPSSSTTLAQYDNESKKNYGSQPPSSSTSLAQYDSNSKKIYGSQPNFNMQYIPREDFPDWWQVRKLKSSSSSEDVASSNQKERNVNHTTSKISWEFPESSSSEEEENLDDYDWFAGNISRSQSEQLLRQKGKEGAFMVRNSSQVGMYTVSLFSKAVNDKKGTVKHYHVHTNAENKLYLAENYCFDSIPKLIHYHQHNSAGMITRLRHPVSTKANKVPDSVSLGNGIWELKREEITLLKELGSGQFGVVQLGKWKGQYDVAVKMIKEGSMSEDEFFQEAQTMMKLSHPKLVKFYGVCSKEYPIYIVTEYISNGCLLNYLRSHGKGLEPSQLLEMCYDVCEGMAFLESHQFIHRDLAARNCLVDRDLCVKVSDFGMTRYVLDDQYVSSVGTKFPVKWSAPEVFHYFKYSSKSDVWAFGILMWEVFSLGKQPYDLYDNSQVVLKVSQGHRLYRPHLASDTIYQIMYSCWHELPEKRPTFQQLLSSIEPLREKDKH

[3] = target: Proto-oncogene tyrosine-protein kinase Src (Homo sapiens) (UniProt P12931); test: Inhibition of cSRC assessed as activity remaining at 10 uM
Proto-oncogene tyrosine-protein kinase Src (Homo sapiens), sequence (P12931 2-536 limits assumed): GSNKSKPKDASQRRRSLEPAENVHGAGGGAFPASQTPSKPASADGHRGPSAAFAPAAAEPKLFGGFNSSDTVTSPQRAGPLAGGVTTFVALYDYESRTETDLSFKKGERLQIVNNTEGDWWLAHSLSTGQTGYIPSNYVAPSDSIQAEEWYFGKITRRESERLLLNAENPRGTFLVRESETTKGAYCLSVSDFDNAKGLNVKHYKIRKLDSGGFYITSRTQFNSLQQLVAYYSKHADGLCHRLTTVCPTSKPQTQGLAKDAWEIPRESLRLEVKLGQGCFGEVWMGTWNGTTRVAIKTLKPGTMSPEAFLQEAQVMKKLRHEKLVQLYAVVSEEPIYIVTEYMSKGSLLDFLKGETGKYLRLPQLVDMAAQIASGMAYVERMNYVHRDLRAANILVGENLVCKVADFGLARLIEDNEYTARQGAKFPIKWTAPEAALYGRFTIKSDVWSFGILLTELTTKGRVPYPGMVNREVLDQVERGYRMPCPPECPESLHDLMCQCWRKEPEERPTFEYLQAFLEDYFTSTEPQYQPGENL

[4] = target: Tyrosine-protein kinase Fes/Fps (Homo sapiens) (UniProt P07332); test: Inhibition of Fes assessed as activity remaining at 10 uM
Tyrosine-protein kinase Fes/Fps (Homo sapiens), sequence (P07332 whole entry): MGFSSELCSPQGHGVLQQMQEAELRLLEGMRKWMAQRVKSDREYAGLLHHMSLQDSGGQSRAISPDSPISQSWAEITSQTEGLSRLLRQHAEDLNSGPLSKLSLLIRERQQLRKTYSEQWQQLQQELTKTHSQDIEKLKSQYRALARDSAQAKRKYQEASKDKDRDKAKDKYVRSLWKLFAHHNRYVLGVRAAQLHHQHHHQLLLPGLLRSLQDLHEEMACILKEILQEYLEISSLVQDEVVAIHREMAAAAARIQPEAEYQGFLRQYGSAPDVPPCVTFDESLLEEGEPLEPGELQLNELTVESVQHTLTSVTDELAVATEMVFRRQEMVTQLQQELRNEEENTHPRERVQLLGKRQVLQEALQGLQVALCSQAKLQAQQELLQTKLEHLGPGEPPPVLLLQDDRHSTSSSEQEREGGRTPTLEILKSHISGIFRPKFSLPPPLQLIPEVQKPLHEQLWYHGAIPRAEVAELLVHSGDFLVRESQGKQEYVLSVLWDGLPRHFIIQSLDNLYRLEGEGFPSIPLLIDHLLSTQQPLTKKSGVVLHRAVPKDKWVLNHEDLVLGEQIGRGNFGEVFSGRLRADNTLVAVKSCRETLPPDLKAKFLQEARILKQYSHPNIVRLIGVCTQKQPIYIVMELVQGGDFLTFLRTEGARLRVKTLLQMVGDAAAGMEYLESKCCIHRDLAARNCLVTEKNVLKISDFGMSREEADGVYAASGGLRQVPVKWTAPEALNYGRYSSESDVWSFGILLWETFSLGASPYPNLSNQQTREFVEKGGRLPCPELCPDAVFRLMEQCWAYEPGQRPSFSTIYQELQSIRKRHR

[5] = target: Insulin receptor-related protein (Homo sapiens) (UniProt P14616); test: Inhibition of IRR assessed as activity remaining at 10 uM
Insulin receptor-related protein (Homo sapiens), sequence (P14616 27-742 limits assumed): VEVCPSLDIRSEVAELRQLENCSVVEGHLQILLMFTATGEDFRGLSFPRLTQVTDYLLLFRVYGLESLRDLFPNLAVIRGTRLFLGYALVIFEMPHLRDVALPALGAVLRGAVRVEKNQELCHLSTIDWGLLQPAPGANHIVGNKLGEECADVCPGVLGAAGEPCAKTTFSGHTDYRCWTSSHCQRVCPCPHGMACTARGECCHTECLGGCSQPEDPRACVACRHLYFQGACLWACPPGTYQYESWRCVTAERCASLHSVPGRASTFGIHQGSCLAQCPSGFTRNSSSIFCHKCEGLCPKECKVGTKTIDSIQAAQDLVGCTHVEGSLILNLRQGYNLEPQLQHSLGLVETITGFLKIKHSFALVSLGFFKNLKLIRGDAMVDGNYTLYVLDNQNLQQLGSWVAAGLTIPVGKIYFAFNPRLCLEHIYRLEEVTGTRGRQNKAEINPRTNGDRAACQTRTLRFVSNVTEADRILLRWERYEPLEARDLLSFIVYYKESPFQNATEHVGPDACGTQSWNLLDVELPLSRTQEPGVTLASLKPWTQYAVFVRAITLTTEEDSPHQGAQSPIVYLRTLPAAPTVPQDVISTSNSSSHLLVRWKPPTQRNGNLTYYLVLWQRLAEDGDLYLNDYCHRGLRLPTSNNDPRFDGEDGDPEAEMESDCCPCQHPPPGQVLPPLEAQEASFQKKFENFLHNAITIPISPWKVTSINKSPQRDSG
Insulin receptor-related protein (Homo sapiens), sequence (P14616 747-1297 limits assumed): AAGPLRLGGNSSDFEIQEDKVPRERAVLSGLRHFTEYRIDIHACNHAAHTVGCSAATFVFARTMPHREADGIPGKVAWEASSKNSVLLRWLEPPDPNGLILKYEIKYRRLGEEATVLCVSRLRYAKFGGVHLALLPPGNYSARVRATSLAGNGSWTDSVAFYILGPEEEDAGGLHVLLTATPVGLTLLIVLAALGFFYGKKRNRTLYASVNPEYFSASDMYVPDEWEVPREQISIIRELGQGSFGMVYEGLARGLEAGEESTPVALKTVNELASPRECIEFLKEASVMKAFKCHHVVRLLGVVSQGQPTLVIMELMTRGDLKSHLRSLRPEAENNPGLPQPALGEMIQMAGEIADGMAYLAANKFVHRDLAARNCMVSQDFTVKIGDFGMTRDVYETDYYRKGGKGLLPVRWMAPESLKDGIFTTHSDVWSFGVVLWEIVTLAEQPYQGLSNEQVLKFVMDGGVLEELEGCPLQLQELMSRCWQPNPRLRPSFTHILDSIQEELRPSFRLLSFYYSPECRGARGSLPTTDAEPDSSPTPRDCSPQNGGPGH

[6] = target: T3, Tyrosine-protein kinase ITK/TSK (Homo sapiens) (UniProt Q08881); test: Inhibition of Itk assessed as activity remaining at 10 uM
T3 sequence (whole entry): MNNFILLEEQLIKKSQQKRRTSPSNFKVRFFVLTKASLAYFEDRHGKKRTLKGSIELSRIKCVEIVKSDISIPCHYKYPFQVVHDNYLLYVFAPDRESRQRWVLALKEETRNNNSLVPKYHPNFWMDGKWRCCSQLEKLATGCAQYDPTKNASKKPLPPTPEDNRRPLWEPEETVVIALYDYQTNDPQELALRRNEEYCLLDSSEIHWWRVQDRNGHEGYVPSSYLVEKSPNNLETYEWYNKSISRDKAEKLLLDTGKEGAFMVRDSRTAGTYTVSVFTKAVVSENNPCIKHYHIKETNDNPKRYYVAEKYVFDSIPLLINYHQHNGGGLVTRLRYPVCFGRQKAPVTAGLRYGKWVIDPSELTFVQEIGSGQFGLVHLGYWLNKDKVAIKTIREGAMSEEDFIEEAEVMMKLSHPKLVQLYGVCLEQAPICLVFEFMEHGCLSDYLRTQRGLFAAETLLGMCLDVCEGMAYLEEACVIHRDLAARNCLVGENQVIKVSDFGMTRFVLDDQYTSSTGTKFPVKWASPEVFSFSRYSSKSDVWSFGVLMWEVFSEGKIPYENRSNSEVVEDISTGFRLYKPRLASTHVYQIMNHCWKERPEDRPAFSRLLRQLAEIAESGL

[7] = target: Mitogen-activated protein kinase kinase kinase 9 (Homo sapiens) (UniProt P80192); test: Inhibition of MLK1 assessed as activity remaining at 10 uM
Mitogen-activated protein kinase kinase kinase 9 (Homo sapiens), sequence (P80192 whole entry, looked up): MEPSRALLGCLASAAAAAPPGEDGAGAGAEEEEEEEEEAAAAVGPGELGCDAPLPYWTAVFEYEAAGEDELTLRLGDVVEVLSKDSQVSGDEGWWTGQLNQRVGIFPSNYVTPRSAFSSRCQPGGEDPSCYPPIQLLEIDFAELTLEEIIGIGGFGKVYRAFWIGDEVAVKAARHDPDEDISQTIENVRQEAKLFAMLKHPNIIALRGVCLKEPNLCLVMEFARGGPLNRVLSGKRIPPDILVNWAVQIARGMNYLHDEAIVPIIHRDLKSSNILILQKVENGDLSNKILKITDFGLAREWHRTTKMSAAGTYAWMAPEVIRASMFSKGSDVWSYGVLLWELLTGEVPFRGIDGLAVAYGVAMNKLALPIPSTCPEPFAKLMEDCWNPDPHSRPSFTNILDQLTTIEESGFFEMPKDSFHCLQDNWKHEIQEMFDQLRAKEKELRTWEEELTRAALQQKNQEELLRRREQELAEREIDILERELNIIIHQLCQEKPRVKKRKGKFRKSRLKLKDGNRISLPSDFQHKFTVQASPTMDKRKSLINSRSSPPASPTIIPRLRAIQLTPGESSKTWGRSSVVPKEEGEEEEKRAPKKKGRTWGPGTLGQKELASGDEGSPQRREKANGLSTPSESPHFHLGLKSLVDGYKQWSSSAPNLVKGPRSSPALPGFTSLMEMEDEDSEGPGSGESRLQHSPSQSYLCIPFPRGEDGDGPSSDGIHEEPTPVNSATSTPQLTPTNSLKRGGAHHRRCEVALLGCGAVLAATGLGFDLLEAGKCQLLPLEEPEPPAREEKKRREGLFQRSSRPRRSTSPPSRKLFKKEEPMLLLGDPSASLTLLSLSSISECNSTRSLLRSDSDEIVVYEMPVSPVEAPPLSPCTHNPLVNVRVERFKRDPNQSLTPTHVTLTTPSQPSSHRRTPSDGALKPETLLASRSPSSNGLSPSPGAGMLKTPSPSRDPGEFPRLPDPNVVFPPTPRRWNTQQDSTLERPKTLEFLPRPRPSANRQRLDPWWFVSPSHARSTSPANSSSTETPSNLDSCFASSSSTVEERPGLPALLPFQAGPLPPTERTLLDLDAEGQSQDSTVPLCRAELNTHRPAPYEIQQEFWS

[8] = target: T4, Serine/threonine-protein kinase Sgk1 (Homo sapiens) (UniProt O00141); test: Inhibition of SGK assessed as activity remaining at 10 uM
T4 sequence (whole entry): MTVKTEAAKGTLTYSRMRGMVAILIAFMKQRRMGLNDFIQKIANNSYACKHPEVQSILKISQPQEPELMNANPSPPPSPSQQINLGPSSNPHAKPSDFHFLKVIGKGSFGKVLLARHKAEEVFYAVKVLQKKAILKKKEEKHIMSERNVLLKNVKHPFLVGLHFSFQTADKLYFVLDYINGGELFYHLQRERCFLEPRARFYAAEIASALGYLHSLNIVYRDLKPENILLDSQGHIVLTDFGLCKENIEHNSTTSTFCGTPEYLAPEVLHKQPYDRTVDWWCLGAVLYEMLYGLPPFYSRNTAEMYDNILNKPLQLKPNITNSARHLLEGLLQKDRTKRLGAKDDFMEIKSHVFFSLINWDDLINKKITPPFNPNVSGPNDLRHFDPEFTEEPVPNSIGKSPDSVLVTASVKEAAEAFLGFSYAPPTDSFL

[9] = target: Tyrosine-protein kinase SYK (Homo sapiens) (UniProt P43405); test: Inhibition of Syk assessed as activity remaining at 10 uM

O=c1[nH]c2ncc(-c3ccc(-c4nc[nH]n4)cc3)nc2n1CC1CCOCC1
Activity [1]: 79%
Activity [2]: 93%
Activity [3]: 92%
Activity [4]: 89%
Activity [5]: 90%
Activity [6]: 99%
Activity [7]: 86%
Activity [8]: 97%
Activity [9]: 48%

O=c1[nH]c2ncc(-c3ccc4[nH]cnc4c3)nc2n1CC1CCCCC1
Activity [1]: 32%
Activity [2]: 92%
Activity [3]: 63%
Activity [4]: 88%
Activity [5]: 92%
Activity [6]: 96%
Activity [7]: 49%
Activity [8]: 53%
Activity [9]: 40%

CC(C)(O)c1ccc(-c2cnc3[nH]c(=O)n(CC4CCCCC4)c3n2)cc1
Activity [1]: 58%
Activity [2]: 85%
Activity [3]: 73%
Activity [4]: 81%
Activity [5]: 89%
Activity [6]: 90%
Activity [7]: 80%
Activity [8]: 96%
Activity [9]: 95%
